Source: PMC9097471, “Development of Selective Phosphatidylinositol 5-Phosphate 4-Kinase γ Inhibitors with a Non-ATP-competitive, Allosteric Binding Mode” (Journal of Medicinal Chemistry, 2022)

How the values were obtained:
Assay in all cases: Kinase panel, radiometric 33P filter binding
Conditions in all cases: read-out: % activity remaining
p38g MAPK = p38g MAPK (Homo sapiens, UniProt P53778)
Description: (§1) filter binding assay using 33P-g-ATPat the MRC PPU International Centre for Kinase Profiling, University of

PAK6 = PAK6 (Homo sapiens, UniProt Q9NQU5)
RSK1 = RSK1 (Homo sapiens, UniProt Q15418)
Description: as §1

PIM2 = PIM2 (Homo sapiens, UniProt Q9P1W9)
PIM2, sequence (Q9P1W9 whole entry): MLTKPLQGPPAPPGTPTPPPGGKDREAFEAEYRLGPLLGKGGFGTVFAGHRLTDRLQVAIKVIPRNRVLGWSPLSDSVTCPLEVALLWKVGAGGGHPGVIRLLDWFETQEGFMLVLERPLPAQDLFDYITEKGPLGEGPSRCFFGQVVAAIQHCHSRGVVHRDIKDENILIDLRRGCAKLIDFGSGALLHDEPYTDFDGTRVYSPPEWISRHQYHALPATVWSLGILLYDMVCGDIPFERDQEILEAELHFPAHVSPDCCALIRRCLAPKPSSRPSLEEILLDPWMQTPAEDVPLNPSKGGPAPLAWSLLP
Description: as §1

PKCγ = PKCγ (Homo sapiens, UniProt P05129)
Description: as §1

WNK1 = WNK1 (Homo sapiens, UniProt Q9H4A3)
Description: as §1

TrkA = TrkA (Homo sapiens, UniProt P04629)
Description: as §1

Aurora B = Aurora B (Homo sapiens, UniProt Q96GD4)
Aurora B, sequence (Q96GD4 whole entry): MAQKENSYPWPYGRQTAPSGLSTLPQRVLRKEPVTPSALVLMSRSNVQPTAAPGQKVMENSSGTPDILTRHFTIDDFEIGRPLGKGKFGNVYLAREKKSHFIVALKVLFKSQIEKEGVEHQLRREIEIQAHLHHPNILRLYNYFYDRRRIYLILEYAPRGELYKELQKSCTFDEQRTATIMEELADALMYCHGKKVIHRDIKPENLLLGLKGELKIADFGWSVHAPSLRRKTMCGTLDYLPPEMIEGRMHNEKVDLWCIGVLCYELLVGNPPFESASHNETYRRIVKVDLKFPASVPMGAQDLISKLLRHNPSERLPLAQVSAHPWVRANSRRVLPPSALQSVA
Description: as §1

MINK1 = MINK1 (Homo sapiens, UniProt Q8N4C8)
MINK1, sequence (Q8N4C8 whole entry): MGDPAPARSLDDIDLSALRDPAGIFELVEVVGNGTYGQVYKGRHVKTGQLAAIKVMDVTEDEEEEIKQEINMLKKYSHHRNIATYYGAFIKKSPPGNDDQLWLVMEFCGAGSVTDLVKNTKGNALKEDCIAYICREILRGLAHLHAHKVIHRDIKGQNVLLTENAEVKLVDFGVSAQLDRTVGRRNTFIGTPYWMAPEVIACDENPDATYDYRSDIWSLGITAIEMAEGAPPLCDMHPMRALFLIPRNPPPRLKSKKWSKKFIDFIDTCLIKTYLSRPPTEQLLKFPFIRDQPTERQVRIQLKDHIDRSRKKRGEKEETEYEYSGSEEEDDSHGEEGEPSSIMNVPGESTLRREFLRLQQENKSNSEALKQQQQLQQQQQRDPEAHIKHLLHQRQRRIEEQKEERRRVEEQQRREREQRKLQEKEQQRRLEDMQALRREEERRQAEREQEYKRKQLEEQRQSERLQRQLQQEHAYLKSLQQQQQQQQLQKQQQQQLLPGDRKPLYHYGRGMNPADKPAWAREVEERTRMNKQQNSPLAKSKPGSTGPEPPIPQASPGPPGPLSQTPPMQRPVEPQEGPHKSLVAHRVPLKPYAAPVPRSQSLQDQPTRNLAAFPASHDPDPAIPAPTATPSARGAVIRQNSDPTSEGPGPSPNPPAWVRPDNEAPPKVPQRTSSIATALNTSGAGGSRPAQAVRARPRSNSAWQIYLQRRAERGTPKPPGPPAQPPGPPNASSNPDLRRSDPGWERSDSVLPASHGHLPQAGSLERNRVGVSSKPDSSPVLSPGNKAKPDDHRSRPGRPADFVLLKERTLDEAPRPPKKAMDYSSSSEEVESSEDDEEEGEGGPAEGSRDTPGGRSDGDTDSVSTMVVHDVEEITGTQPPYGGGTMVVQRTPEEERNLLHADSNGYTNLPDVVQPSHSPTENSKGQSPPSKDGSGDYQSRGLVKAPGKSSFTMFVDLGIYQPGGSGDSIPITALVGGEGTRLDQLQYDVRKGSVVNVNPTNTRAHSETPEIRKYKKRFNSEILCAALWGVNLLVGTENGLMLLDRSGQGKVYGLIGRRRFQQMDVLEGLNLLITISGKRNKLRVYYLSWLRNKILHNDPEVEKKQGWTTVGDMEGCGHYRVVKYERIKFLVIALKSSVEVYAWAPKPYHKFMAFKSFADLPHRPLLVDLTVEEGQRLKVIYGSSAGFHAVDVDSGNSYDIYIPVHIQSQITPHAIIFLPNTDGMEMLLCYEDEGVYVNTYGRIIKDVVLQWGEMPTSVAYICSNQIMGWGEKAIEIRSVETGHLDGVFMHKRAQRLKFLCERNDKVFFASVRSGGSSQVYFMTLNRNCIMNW
Description: as §1

CLK2 = CLK2 (Homo sapiens, UniProt P49760)
Description: as §1

ZAP70 = ZAP70 (Homo sapiens, UniProt P43403)
ZAP70, sequence (P43403 whole entry): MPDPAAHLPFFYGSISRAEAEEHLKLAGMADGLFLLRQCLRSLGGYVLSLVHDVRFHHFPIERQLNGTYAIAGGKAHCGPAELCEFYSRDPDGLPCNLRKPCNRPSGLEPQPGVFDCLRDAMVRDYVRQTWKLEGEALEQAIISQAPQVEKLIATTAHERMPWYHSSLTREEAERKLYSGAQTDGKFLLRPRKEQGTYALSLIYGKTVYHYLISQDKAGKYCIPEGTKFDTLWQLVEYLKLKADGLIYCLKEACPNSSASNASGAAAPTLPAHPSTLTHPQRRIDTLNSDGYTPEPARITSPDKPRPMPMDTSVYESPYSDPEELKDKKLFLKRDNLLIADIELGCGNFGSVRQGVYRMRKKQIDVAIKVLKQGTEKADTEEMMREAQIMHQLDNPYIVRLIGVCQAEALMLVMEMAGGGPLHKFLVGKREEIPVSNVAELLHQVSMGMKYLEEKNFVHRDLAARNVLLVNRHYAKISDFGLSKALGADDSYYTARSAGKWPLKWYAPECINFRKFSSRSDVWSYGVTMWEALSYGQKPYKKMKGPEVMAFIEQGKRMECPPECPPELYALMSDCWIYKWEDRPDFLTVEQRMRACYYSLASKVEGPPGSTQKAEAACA

PAK5 = PAK5 (Homo sapiens, UniProt Q9P286)
Src = Src (Homo sapiens, UniProt P12931)
p38b MAPK = p38b MAPK (Homo sapiens, UniProt Q15759)
Description: as §1

TAK1 = TAK1 (Homo sapiens, UniProt O43318)
TAK1, sequence (O43318 1-303 limits assumed): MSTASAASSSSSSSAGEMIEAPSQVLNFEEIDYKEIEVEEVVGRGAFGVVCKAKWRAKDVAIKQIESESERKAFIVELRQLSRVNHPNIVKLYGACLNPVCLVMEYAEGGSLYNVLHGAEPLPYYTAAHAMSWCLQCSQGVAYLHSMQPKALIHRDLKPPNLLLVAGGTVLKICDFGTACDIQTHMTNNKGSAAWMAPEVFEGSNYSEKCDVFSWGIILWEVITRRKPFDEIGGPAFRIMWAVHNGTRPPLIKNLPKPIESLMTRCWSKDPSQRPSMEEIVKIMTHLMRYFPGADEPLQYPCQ

PAK6, sequence (Q9NQU5 whole entry): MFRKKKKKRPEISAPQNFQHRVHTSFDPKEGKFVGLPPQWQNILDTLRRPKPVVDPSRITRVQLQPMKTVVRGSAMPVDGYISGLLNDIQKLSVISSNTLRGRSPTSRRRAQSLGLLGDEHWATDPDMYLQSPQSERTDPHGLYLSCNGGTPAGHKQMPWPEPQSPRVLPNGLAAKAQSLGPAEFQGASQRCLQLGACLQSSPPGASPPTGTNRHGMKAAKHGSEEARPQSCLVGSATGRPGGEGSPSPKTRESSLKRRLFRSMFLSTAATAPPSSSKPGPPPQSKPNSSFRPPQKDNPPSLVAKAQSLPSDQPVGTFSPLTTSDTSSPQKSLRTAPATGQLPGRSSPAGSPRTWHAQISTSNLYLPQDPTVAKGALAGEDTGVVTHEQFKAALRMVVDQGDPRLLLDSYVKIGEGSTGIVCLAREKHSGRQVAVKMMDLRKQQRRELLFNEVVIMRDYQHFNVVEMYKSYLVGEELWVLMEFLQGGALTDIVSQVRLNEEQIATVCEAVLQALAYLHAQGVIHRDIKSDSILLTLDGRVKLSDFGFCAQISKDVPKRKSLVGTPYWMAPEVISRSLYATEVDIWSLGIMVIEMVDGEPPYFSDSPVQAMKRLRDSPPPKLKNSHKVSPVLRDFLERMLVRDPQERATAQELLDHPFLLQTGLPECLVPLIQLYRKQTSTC
RSK1, sequence (Q15418 whole entry): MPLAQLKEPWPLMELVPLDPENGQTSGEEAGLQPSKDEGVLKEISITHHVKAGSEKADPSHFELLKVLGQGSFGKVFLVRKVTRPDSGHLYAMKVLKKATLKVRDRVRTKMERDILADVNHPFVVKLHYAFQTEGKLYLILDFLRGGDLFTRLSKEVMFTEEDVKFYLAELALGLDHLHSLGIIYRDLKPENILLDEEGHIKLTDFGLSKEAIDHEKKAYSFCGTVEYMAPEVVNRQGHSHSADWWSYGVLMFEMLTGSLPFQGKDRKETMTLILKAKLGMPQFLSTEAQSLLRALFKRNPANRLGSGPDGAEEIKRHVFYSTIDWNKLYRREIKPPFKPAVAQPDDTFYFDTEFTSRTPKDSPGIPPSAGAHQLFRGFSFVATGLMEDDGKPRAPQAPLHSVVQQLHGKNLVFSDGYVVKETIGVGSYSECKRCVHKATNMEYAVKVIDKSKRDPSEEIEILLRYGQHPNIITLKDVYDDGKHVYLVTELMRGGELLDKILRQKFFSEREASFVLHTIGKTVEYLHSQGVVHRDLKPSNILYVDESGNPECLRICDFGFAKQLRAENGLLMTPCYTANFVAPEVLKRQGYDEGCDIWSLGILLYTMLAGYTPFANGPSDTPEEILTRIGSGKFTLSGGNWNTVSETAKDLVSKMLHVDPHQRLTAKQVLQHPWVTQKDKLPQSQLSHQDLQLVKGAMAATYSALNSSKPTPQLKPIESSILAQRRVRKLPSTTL

Compound: CC(C)c1ccccc1-c1nc(NCc2ccccn2)c2c(ccn2C)n1 [Compound 40]
- remaining activity at 10 µM (p38g MAPK): 105%
- remaining activity at 10 µM (PAK6): 95%
- remaining activity at 10 µM (RSK1): 99%
- remaining activity at 10 µM (PIM2): 110%
- remaining activity at 10 µM (PKCγ): 77%
- remaining activity at 10 µM (WNK1): 112%
- remaining activity at 10 µM (TrkA): 100%
- remaining activity at 10 µM (Aurora B): 113%
- remaining activity at 10 µM (MINK1): 95%
- remaining activity at 10 µM (CLK2): 94%
- remaining activity at 10 µM (ZAP70): 95%
- remaining activity at 10 µM (PAK5): 120%
- remaining activity at 10 µM (Src): 135%
- remaining activity at 10 µM (p38b MAPK): 94%
- remaining activity at 10 µM (TAK1): 110%
